Assay results from US12582677B2, “Methods for producing retinal tissue and retina-related cell” (SUMITOMO CHEMICAL COMPANY, LIMITED, priority 2011, dated 2026).

What was measured:
Format in all cases: cell-based
[1] = system: human ES cell-derived retinal tissue after freeze-thawing; assay: Treatment of human ES cell-derived retinal tissue after freeze-thawing with DAPT: GFP fluorescence, Recoverin and Brn3 immunostaining; conditions: tissue freeze-thawed day 33, 10 μM DAPT added day 38
Experimental: RAX::GFP knock-in human ES cells (derived from KhES-1) were cultured according to the methods described in “Ueno, M. et al. PNAS 2006”, “Watanabe, K. et al. Nat Biotech 2007” and used for the experiment. As the medium, DMEM/F12 medium (Invitrogen) added with 20% KSR (Knockout Serum Replacement; Invitrogen), 0.1 mM 2-mercaptoethanol, 1 mM pyruvic acid, and 5 to 10 ng/ml bFGF was used. For the production of retinal tissue by floating culture, the ES cells were dispersed into single cells by using 0.25% trypsin-EDTA (Invitrogen), and floating-cultured in a serum-free medium (100 μl) at 37° C., 5% CO2 to 9×10^3 cells per well of a non-cell adhesive 96-well culture plate (SUMILON spheroid plate, SUMITOMO BAKELITE CO., LTD.). As the serum-free medium in this case, a serum-free medium obtained by adding 20% KSR, 0.1 mM 2-mercaptoethanol, 1 mM pyruvic acid, 20 μM Y27632 and a substance inhibiting the Wnt signal pathway (3 μM IWR1e) to G-MEM medium was used. […] Matrigel was added in an amount of 1/100 per volume from day 2 of the floating culture and floating culture was performed. Fetal calf serum in an amount of 1/10 per volume and a substance acting on the Shh signal pathway (100 nM SAG) were added on day 12 from the start of the floating culture and the floating culture was performed to produce a retinal tissue. The produced retinal tissue on day 33 from the start of the floating culture was freeze-thawed, and a Notch signal action inhibitory substance (10 μM DAPT) was added to the retinal tissue on day 38 from the start of the floating culture. […] The prepared frozen section was immunostained for Recoverin, which is one of the marker genes of photoreceptor, and Brn3, which is one of the marker genes of ganglion cells, and the results were compared between the presence and absence of DAPT-addition.

[2] = system: Crx::GFP knock-in human ES cell-derived retinal tissue; assay: Treatment of human ES cell-derived retinal tissue with DAPT: GFP fluorescence, Recoverin and Brn3 immunostaining; conditions: 10 μM DAPT added day 29
Experimental: CrX::GFP knock-in human ES cells (derived from KhES-1) were cultured according to the methods described in “Ueno, M. et al. PNAS 2006”, “Watanabe, K. et al. Nat Biotech 2007” and used for the experiment. As the medium, DMEM/F12 medium (Invitrogen) added with 20% KSR (Knockout Serum Replacement; Invitrogen), 0.1 mM 2-mercaptoethanol, 1 mM pyruvic acid, and 5 to 10 ng/ml bFGF was used. The ES cells were dispersed into single cells by using 0.25% trypsin-EDTA (Invitrogen), and floating-cultured in a serum-free medium (100 μl) at 37° C., 5% CO2 to 9×10^3 cells per well of a non-cell adhesive 96-well culture plate (SUMILON spheroid plate, SUMITOMO BAKELITE CO., LTD.). As the serum-free medium in this case, a serum-free medium obtained by adding 20% KSR, 0.1 mM 2-mercaptoethanol, 1 mM pyruvic acid, 20 μM Y27632 and a substance inhibiting the Wnt signal pathway (3 μM IWR1e) to G-MEM medium was used. Matrigel was added in an amount of 1/100 per volume from day 2 of the floating culture and floating culture was performed. Fetal calf serum in an amount of 1/10 per volume and a substance acting on the Shh signal pathway (100 nM SAG) were added on day 12 of floating culture and the floating culture was performed to produce a retinal tissue. A substance acting on the Notch signal (10 μM DAPT (gamma secretase activity inhibitor)) was added to the retinal tissue on day 29 from the start of the floating culture, observed with a fluorescence microscope on day 41 from the start of the floating culture (day 12 after the addition), and fixed with 4% para-formaldehyde on day 43 from the start of the floating culture (day 14 after the addition), and a frozen section was prepared. The prepared frozen section was immunostained for Recoverin, which is one of the marker genes of photoreceptor, and Brn3, which is one of the marker genes of ganglion cells, and the results were compared between the presence and absence of DAPT-addition.

[3] = system: RAX::GFP knock-in human ES cells; assay: Production of retinal tissue from human ES cell aggregates: GFP-expressing (retinal progenitor) cells by fluorescence microscopy and FACS
Experimental: RAX::GFP knock-in human ES cells (derived from KhES-1) were cultured according to the methods described in “Ueno, M. et al. PNAS 2006”, “Watanabe, K. et al. Nat Biotech 2007” and used for the experiment. As the medium, DMEM/F12 medium (Invitrogen) added with 20% KSR (Knockout Serum Replacement; Invitrogen), 0.1 mM 2-mercaptoethanol, 1 mM pyruvic acid, and 5 to 10 ng/ml bFGF was used. The ES cells were dispersed into single cells by using 0.25% trypsin-EDTA (Invitrogen), and floating-cultured in a serum-free medium (100 μl) at 37° C., 5% CO2 to 9×10^3 cells per well of a non-cell adhesive 96-well culture plate (SUMILON spheroid plate, SUMITOMO BAKELITE CO., LTD.). As the serum-free medium in this case, a serum-free medium obtained by adding 20% KSR, 0.1 mM 2-mercaptoethanol, 1 mM pyruvic acid and 20 μM Y27632 to G-MEM medium was used. During the floating culture, Matrigel in an amount of 1/100 per volume was added from day 2 from the start of the floating culture. Thereafter, fluorescence microscopic observation was regularly performed while continuing the floating culture.
RAX::GFP knock-in human ES cells (derived from KhES-1) were cultured according to the methods described in “Ueno, M. et al. PNAS 2006”, “Watanabe, K. et al. Nat Biotech 2007” and used for the experiment. As the medium, DMEM/F12 medium (Invitrogen) added with 20% KSR (Knockout Serum Replacement; Invitrogen), 0.1 mM 2-mercaptoethanol, 1 mM pyruvic acid, and 5-10 ng/ml bFGF was used. For the production of retinal tissue by floating culture, the ES cells were dissociated into single cells by using 0.25% trypsin-EDTA (Invitrogen), and floating-cultured in a serum-free medium (100 μl) at 37° C., 5% CO2 to 9×10^3 cells per well of a non-cell adhesive 96-well culture plate (SUMILON spheroid plate, SUMITOMO BAKELITE CO., LTD.). As the serum-free medium in this case, a serum-free medium obtained by adding 20% KSR, 0.1 mM 2-mercaptoethanol, 1 mM pyruvic acid, 20 μM Y27632 and a substance inhibiting the Nodal signal pathway (10 μM SB431542) to G-MEM medium was used. During the floating culture, Matrigel in an amount of 1/100 per volume was added from day 2 from the start of the floating culture. Thereafter, the floating culture was continued and fluorescence microscopic observation and confirmation of the proportion of the GFP-expressing cells were performed by FACS on day 18 from the start of the floating culture.
RAX::GFP knock-in human ES cells (derived from KhES-1) were cultured according to the methods described in “Ueno, M. et al. PNAS 2006”, “Watanabe, K. et al. Nat Biotech 2007” and used for the experiment. As the medium, DMEM/F12 medium (Invitrogen) added with 20% KSR (Knockout Serum Replacement; Invitrogen), 0.1 mM 2-mercaptoethanol, 1 mM pyruvic acid, and 5 to 10 ng/ml bFGF was used. For the production of retinal tissue by floating culture, the ES cells were dispersed into single cells by using 0.25% trypsin-EDTA (Invitrogen), and floating-cultured in a serum-free medium (100 μl) at 37° C., 5% CO2 to 9×10^3 cells per well of a non-cell adhesive 96-well culture plate (SUMILON spheroid plate, SUMITOMO BAKELITE CO., LTD.). As the serum-free medium in this case, a serum-free medium obtained by adding 20% KSR, 0.1 mM 2-mercaptoethanol, 1 mM pyruvic acid, 20 μM Y27632 and a substance inhibiting the Wnt signal pathway (3 μM IWR1e) to G-MEM medium was used. During the floating culture, Matrigel in an amount of 1/100 per volume was added from day 2 from the start of the floating culture. Thereafter, the floating culture was continued and fluorescence microscopic observation and confirmation of the proportion of the GFP-expressing cells were performed by FACS on day 18 from the start of the floating culture.
RAX::GFP knock-in human ES cells (derived from KhES-1) were cultured according to the methods described in “Ueno, M. et al. PNAS 2006”, “Watanabe, K. et al. Nat Biotech 2007” and used for the experiment. […]

[4] = system: RAX::GFP knock-in human ES cells; assay: Production of optic-cup-like structure from human ES cell aggregates; conditions: 3 μM CHIR99021 and 100 nM SAG together in serum-containing medium from day 15
Experimental: RAX::GFP knock-in human ES cells (derived from KhES-1) were cultured according to the methods described in “Ueno, M. et al. PNAS 2006”, “Watanabe, K. et al. Nat Biotech 2007” and used for the experiment. As the medium, DMEM/F12 medium (Invitrogen) added with 20% KSR (Knockout Serum Replacement; Invitrogen), 0.1 mM 2-mercaptoethanol, 1 mM pyruvic acid, and 5 to 10 ng/ml bFGF was used. For the formation of aggregate by floating culture, the ES cells were dispersed into single cells by using 0.25% trypsin-EDTA (Invitrogen), suspended in a serum-free medium (100 μl) to 9×10^3 cells per well of a non-cell adhesive 96-well culture plate (SUMILON spheroid plate, SUMITOMO BAKELITE CO., LTD.) to allow for rapid formation of aggregates, and floating cultured at 37° C., 5% CO2. As the serum-free medium in this case, a serum-free medium obtained by adding 20% KSR, 0.1 mM 2-mercaptoethanol, 1 mM pyruvic acid, 20 μM Y27632 and a substance inhibiting the Wnt signal pathway (3 μM IWR1e) to G-MEM medium was used. During the floating culture, Matrigel in an amount of 1/100 per volume was added from day 2 from the start of the floating culture. The floating aggregate was transferred to a serum-free medium without a substance inhibiting the Wnt signal pathway on day 12 from the start of the floating culture, fetal calf serum in an amount of 1/10 per volume was added and the aggregate was cultured. […]

[5] = 100 nM SAG and fetal calf serum 1/10 added day 12, with 3 μM IWR1e and Matrigel, day 18

In the case of `C[C@H](NC(=O)Cc1cc(F)cc(F)c1)C(=O)N[C@H](C(=O)OC(C)(C)C)c1ccccc1` [DAPT, N-[N-(3,5-difluorophenacetyl)-L-alanyl]-S-phenylglycine t-butyl ester], the “Recoverin-positive cells produced (immunostaining of frozen section)” value ([1]; day 49) is reported as “about 5 fold”, the “ganglion cells (immunostaining of Brn3)” value ([1]; day 49) is reported as “produced” and the “GFP-expressing cells (fluorescence microscope) compared to no DAPT” value ([1]; observed day 49) is reported as “markedly produced”. The “ganglion cells (immunostaining of Brn3)” value ([2]; fixed day 43) was “increased”, the “increase of Recoverin-positive cells (immunostaining of frozen section)” value ([2]; fixed day 43) was 3- to 5 fold and the “GFP-expressing cells (fluorescence microscope) compared to no DAPT” value ([2]; observed day 41) was “markedly increased”.

With `O=C(Nc1cccc2cccnc12)c1ccc(N2C(=O)[C@@H]3[C@H](C2=O)[C@@H]2C=C[C@H]3C2)cc1` [IWR1e] the “GFP-expressing cells (fluorescence microscopic observation)” value ([3]; 3 μM IWR1e in serum-free medium, Matrigel 1/100 from day 2, compared to Comparative Examples 1 and 2) was “clearly increased” and the “proportion of the GFP-expressing cells (FACS)” value ([3]; 3 μM IWR1e, Matrigel, no serum (Comparative Example 3), day 18 of floating culture) was 3.2%.

With `CNC1CCC(N(Cc2cccc(-c3ccncc3)c2)C(=O)c2sc3ccccc3c2Cl)CC1` (stereo not shown) [SAG] the “optic-cup-like structure formation on aggregate” value [4] was “a clear optic-cup-like structure was formed”, the “GFP-expressing cells (fluorescence microscopic observation)” value [3, 5] was “a very high number of GFP-expressing cells emerged” and the “proportion of the GFP-expressing cells (FACS)” value [3, 5] was “not less than 70%”. For the same compound, the “increase of proportion of GFP-expressing cells compared to Comparative Example 3” value ([3]; Example 2: serum and 100 nM SAG added simultaneously, with 3 μM IWR1e and Matrigel) was “about 24 fold”.

For `NC(=O)c1ccc(-c2nc(-c3ccc4c(c3)OCO4)c(-c3ccccn3)[nH]2)cc1` [SB431542], the “GFP-expressing cells (fluorescence microscopic observation)” value ([3]; 10 μM SB431542 in serum-free medium, Matrigel 1/100 from day 2) was “somewhat found”.
